Values quoted from earlier work, collected in US6362169B1 (priority 1998, dated 2002).

System: Helicobacter pylori
Details: combination use with a proton pump inhibitor or a bismuth preparation (WO 97/02039)

## CO[C@H]1/C=C/O[C@@]2(C)Oc3c(C)c(O)c4c(c3C2=O)C2=NC3(CCN(CC(C)C)CC3)NC2=C(NC(=O)/C(C)=C\C=C\[C@H](C)[C@H](O)[C@@H](C)[C@@H](O)[C@@H](C)[C@H](OC(C)=O)[C@@H]1C)C4=O [Rifabutin, rifabutin]
  effect on minimum inhibitory concentration by combination use: synergistic effect
